Test [1] concerns the target T1, Son of sevenless homolog 1 (Homo sapiens) (UniProt Q07889).
T1 sequence (whole entry): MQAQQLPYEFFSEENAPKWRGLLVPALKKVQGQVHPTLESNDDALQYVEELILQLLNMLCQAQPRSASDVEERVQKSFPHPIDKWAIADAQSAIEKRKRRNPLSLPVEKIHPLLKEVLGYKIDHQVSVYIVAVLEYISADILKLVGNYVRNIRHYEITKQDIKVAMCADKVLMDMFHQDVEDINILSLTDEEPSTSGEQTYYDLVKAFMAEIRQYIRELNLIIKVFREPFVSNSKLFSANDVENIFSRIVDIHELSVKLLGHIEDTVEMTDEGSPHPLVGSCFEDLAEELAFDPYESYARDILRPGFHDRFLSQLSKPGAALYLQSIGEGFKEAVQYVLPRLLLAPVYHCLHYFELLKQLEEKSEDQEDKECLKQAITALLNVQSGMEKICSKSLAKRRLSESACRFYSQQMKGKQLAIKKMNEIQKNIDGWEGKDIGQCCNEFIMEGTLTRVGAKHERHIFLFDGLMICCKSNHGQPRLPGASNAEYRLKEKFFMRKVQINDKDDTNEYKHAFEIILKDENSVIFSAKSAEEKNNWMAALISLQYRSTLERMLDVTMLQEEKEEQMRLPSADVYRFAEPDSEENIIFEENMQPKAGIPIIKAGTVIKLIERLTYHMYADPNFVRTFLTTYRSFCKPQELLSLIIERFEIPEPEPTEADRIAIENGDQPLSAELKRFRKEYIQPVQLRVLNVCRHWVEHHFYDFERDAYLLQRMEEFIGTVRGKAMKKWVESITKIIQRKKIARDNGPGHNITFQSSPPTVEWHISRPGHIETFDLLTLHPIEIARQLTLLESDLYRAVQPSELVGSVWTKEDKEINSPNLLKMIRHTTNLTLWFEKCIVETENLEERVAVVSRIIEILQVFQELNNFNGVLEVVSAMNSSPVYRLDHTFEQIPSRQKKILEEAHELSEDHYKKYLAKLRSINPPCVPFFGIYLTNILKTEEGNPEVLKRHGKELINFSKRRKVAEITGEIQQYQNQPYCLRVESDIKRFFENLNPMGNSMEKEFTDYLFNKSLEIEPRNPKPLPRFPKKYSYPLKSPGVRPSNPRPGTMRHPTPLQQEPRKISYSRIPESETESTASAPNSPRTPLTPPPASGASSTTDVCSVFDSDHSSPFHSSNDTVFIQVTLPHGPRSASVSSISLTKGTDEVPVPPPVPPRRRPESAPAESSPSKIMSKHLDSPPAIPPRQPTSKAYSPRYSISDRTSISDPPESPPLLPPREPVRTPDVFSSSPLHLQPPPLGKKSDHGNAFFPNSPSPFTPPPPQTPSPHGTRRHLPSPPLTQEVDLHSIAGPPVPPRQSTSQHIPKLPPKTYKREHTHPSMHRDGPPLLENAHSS
Briefly: Binding affinity to N-terminal His10-tagged wild-type recombinant human SOS1 catalytic domain (564 to 1049 residues) expressed in Escherichia coli assessed as binding at 1:1 stoichiometry at 100 uM incubated for 1 hr by native MS analysis.

For another test, the species on record is Homo sapiens. Briefly: Inhibition of N-terminal His10-tagged recombinant human KRAS G12C/C118S mutant (1 to 169 residues) expressed in Escherichia coli/Series S C1 sensor chip-immobilized biotinylated N-terminal His10-tagged wild-type recombinant human SOS1 catalytic domain (564 to 1049 residues) expressed in Escherichia coli protein-protein interaction at 10 uM measured for 360 secs by SPR analysis. To be noted: time 360.0 sec. (In general: Surface plasmon resonance follows binding to a sensor surface in real time, without labels.)

For test [2], the system named is Tyrosine-protein kinase ABL1 (Homo sapiens), P00519 [F317I]. Briefly: Inhibition of phosphorylated ABL1 F317I mutant (unknown origin) assessed as residual activity at 100 nM by KINOMEscan analysis relative to control.
In test [3] the test system is Tyrosine-protein kinase ABL1 (Homo sapiens), P00519 [T315I]. Nature of the test: Inhibition of phosphorylated ABL1 T315I mutant (unknown origin) assessed as residual activity at 100 nM by KINOMEscan analysis relative to control.
The target in test [4] is Calcium/calmodulin-dependent protein kinase kinase 2 (Homo sapiens) (UniProt Q96RR4). Nature of the test: Inhibition of CAMKK2 (unknown origin) assessed as residual activity at 100 nM by KINOMEscan analysis relative to control.
Sequence of Calcium/calmodulin-dependent protein kinase kinase 2 (Homo sapiens) (Q96RR4 2-588 limits assumed): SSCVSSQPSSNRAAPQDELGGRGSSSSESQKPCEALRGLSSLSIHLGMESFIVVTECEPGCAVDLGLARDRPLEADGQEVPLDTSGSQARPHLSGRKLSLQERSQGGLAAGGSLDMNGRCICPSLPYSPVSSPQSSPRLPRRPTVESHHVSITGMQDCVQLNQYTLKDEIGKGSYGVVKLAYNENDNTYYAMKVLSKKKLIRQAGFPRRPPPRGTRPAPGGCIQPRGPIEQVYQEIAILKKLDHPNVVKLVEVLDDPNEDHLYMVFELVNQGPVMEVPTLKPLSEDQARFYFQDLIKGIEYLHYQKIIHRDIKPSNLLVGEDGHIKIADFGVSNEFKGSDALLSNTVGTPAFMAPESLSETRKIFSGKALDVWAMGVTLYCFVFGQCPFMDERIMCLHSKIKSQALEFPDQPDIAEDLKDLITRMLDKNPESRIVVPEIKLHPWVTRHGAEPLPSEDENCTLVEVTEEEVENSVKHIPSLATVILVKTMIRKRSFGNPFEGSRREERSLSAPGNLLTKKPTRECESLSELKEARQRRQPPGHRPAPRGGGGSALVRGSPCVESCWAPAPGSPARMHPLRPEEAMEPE
For test [5], the target named is T2, Megakaryocyte-associated tyrosine-protein kinase (Homo sapiens) (UniProt P42679).
T2 sequence (whole entry): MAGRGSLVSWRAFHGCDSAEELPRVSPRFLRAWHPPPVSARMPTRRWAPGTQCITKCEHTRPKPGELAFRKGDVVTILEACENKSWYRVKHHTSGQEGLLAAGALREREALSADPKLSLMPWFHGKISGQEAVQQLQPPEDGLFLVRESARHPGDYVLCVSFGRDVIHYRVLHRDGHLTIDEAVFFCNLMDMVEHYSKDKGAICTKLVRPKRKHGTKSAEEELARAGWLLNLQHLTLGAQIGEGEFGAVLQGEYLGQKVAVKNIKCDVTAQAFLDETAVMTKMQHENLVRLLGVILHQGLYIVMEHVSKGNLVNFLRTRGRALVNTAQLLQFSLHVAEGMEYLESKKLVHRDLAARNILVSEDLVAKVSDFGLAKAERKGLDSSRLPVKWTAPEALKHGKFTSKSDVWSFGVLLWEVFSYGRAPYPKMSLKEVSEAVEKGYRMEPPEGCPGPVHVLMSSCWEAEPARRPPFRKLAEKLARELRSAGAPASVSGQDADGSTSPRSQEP
Briefly: Inhibition of CTK (unknown origin) assessed as residual activity at 100 nM by KINOMEscan analysis relative to control.

Test [6] concerns the target Glycogen synthase kinase-3 alpha (Homo sapiens) (UniProt P49840). Briefly: Inhibition of GSK3A (unknown origin) assessed as residual activity at 100 nM by KINOMEscan analysis relative to control.
In test [7] the target is Phosphatidylinositol 4,5-bisphosphate 3-kinase catalytic subunit alpha isoform (Homo sapiens) (UniProt P42336). Briefly: Inhibition of PIK3CA (unknown origin) assessed as residual activity at 100 nM by KINOMEscan analysis relative to control.
Sequence of Phosphatidylinositol 4,5-bisphosphate 3-kinase catalytic subunit alpha isoform (Homo sapiens) (P42336 whole entry, the tested form may be a part, canonical isoform): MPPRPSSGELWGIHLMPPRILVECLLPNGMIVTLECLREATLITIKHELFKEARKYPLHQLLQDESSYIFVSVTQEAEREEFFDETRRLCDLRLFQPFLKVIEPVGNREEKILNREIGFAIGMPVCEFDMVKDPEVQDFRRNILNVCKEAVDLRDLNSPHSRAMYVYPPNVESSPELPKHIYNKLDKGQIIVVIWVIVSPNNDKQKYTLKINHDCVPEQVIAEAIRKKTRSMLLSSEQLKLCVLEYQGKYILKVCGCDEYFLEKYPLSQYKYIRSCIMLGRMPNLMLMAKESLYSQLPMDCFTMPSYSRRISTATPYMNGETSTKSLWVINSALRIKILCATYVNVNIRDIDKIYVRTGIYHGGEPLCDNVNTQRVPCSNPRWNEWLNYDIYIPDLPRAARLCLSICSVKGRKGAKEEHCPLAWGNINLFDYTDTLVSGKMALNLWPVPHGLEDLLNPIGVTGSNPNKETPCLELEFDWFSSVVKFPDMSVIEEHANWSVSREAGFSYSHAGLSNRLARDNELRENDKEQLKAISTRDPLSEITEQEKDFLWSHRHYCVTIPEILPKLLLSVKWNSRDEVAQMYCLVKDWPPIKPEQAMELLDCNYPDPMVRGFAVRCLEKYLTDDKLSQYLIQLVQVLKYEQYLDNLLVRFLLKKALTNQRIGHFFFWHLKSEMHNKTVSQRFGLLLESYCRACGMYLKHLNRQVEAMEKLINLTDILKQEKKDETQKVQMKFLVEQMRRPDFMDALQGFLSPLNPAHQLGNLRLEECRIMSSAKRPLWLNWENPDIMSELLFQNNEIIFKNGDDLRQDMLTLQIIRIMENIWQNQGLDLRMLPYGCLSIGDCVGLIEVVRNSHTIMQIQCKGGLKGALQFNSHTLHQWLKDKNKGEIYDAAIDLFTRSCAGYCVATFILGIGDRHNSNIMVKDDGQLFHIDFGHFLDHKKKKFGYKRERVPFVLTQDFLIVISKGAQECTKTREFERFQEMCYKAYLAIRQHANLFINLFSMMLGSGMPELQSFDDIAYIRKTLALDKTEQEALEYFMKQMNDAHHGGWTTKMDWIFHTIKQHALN
In test [8] the target is Son of sevenless homolog 1 (Homo sapiens, UniProt Q07889). Briefly: Inhibition of N-terminal His10-tagged wild-type recombinant human SOS1 catalytic domain (564 to 1049 residues) expressed in Escherichia coli assessed as reduction in KRAS G12C mutant activation preincubated for 10 mins with KRAS followed by SOS1 addition measured after 30 mins in presence of EDA-GTP-DY-647P1 by HTRF analysis. In general terms: In TR-FRET formats the signal depends on donor and acceptor labels being close together.

Test [9] deals with T3, Son of sevenless homolog 1 (Homo sapiens, UniProt Q07889).
T3 sequence (Q07889 whole entry): T1 sequence (whole entry)
Briefly: Inhibition of SOS1 in human K562 cells assessed as reduction in pERK level incubated for 60 mins by HTRF analysis. Format: cell-based.

The source made the active and inactive calls. The rule behind the calls is not given here.

Sequence of Glycogen synthase kinase-3 alpha (Homo sapiens) (P49840 2-483 limits assumed): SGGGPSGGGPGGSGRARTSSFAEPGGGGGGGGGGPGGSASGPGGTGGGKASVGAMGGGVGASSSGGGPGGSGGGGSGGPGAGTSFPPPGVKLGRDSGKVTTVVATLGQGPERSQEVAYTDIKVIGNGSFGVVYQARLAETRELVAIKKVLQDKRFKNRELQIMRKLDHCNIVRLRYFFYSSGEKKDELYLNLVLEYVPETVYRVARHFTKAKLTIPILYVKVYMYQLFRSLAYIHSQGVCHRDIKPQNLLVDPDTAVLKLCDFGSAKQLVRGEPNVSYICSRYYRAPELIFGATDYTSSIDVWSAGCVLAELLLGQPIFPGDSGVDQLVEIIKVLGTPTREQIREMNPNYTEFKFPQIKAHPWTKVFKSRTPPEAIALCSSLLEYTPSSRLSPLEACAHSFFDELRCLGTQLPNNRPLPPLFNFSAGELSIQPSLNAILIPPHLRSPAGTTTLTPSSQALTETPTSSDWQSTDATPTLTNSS

Take `COc1cc2ncnc(N[C@H](C)c3cccc4ccccc34)c2cc1OC`: the outcome (in test [1]; in the test listed under Homo sapiens) was Active. Moreover, the Activity was 91% in test [2]; 89% in test [3]; 60% in test [4]; 64% in [5]; 75% in test [6]; 66% in test [7].
For orientation: IC50 means the point on the concentration scale where inhibition reaches its midpoint. Consider `COc1cc2nc(C)nc(NC(C)c3ccc(-c4cnc5n4CCC5)s3)c2cc1OC` (stereo not given), for which the figures for the IC50 in test [8] and in [9] were 0.93 µM and 1.16 µM, respectively.

For the origin of these results see ChEMBL document CHEMBL5678818, “Discovery of potent SOS1 inhibitors that block RAS activation via disruption of the RAS-SOS1 interaction” (Proc Natl Acad Sci U S A, 2019).
